From patent US20060030623A1, “Agent for the treatment or prevention of diabetes, obesity or arteriosclerosis” (priority 2004, published 2006)

What was measured:
[1] = Anti-arteriosclerosis effect: lipid-stained area of aorta in rabbits on high fat diet; format: in vivo, Japanese white rabbits; conditions: rabbit aorta, lipid stain, high fat diet 100 g/day, 12 weeks
From the text: Japanese white rabbits (Kitayama Labes., Co Ltd.) aged 9 weeks were used in the test. Blood was collected from the auricular artery of animals acclimated to feeding with high fat diet (RC-4 containing 0.3% cholesterol and 3% peanut oil, Oriental Yeast, Co., Ltd.), and then the animals were grouped into 4 groups containing 12 animals each so that there might be no intergroup difference with respect to body weight and parameters in plasma (neutral fat value, total cholesterol value, HDL cholesterol value). Compound (1) was added to the high fat diet so that the intake of Compound (1) might be 3, 10, and 30 mg/kg/100 g diet/day. The animals were allowed to take the diet restricted to 100 g diet/day for 12 weeks, lipid of the aorta was stained, and the stained region was defined as the arteriosclerotic region. The percentage of area of the arteriosclerotic region was calculated according to the equation below.

[2] = Solubility in water; format: physicochemical; conditions: general statement, no test described
[3] = Anti-obesity effect: body weight and gain in rabbits on high fat diet; format: in vivo, Japanese white rabbits; conditions: high fat diet restricted to 100 g/day, after 12 weeks
From the text: Japanese white rabbits (Kitayama Labes., Co Ltd.) aged 9 weeks were used in the test. Blood was collected from the auricular artery of animals acclimated to feeding with high fat diet (RC-4 containing 0.3% cholesterol and 3% peanut oil, supplied by Oriental Yeast, Co., Ltd.), and then the animals were grouped into 4 groups containing 12 animals each so that there might be no intergroup difference with respect to body weight and plasma parameters (neutral fat value, total cholesterol value, HDL cholesterol value). Compound (1) was added to the high fat diet so that the intake of Compound (1) might be 3, 10, and 30 mg/kg/100 g diet/day. The animals were given the diet restricted to 100 g diet/day for 12 weeks, and body weight and its gain were determined after the 12 weeks.

[4] = Visceral fat-decreasing effect: fat weight by X ray CT in rats on high fat diet; format: in vivo; conditions: SD rats, 35% (w/w) high fat diet with 0.029% (w/w) Compound (1), 3 months
From the text: SD rats (Charles River Japan, Inc.) aged 8 weeks were used in the test. Animals acclimated to feeding with 35% (w/w) high fat diet for 1 week were grouped into 2 groups, i.e. a control group and a group treated with Compound (1), for the test. Animals in the control group received the 35% (w/w) high fat diet, and those in the Compound (1) group received the diet prepared by adding Compound (1) to 0.029% (w/w) of the 35% (w/w) high fat diet, for 3 months. Tap water was available ad libitum to the animals in the test.
Fat weight was determined 3 months later with an X ray CT scanner for laboratory animals (Aloka).

[5] = Antidiabetic effect: plasma parameters in KKAy mice after 14 days of Compound (1) in diet; format: in vivo, mouse (male KKAy, genetically diabetic, insulin-resistant); conditions: blood on day 15; for Free fatty acid / Insulin / Neutral fat: plasma
From the text: Male KKAy mice (Clea Japan, Inc.) aged 7 weeks which are genetically diabetic (insulin-resistant) were used in the test. Blood was previously collected from the orbital venous plexus of animals acclimated to feeding with normal powdered diet (CRF-1, Oriental Yeast, Co., Ltd.), and then the animals were grouped into 5 groups containing 6 animals each so that there might be no intergroup difference with respect to plasma parameters (neutral fat value, free fatty acid value, insulin value, blood sugar level). Compound (1) was added to the powdered diet so that the concentration in the diet might be 1, 3, 10, and 30 mg/kg/day. The animals were allowed to take the diet ad libitum for 14 days, and blood was collected again from the orbital venous plexus in the morning on day 15 for the measurement of the above-mentioned plasma parameters.

## CCOC(=O)C(COC(=O)Cc1ccc(NC(=O)c2ccccc2-c2ccc(C(F)(F)F)cc2)c(C(=O)N(C)C)c1)(C(=O)OCC)c1ccccc1 [Compound (1), 2-(2-{3-dimethylcarbamoyl-4-[(4′-trifluoromethyl-biphenyl-2-carbonyl)amino]phenyl}acetoxymethyl)-2-phenylmalonic acid diethyl ester]
[1]; 3 mg/kg/day
  Percentage of area of arteriosclerotic region: 28.4%
[1]; 10 mg/kg/day
  Percentage of area of arteriosclerotic region: 7.7%
[1]; 30 mg/kg/day
  Percentage of area of arteriosclerotic region: 0.15%
[2]
  Solubility in water: slightly soluble or insoluble in water
[3]; 3 mg/kg/day
  Body weight: 3122.1 g
  Body weight gain: 1176.0 g
[3]; 10 mg/kg/day
  Body weight: 2997.1 g
  Body weight gain: 1065.9 g
[3]; 30 mg/kg/day
  Body weight: 2969.0 g
  Body weight gain: 1025.4 g
[4]
  Muscle weight: 204.4 g
  Subcutaneous fat weight: 14.9 g
  Visceral fat weight: 28.8 g
[5]; 1 mg/kg/day in diet
  Blood sugar: 413 ± 34.9 mg/dL
  Free fatty acid: 353 ± 15.9 µEq/l
  Insulin: 117 ± 14.0 ng/mL
  Neutral fat: 676 ± 57.2 mg/dL
[5]; 3 mg/kg/day in diet
  Blood sugar: 516 ± 14.9 mg/dL
  Free fatty acid: 293 ± 11.7 µEq/l
  Insulin: 103 ± 10.5 ng/mL
  Neutral fat: 716 ± 79.9 mg/dL
[5]; 10 mg/kg/day in diet
  Blood sugar: 405 ± 36.8 mg/dL
  Free fatty acid: 235 ± 24.9 µEq/l
  Insulin: 102 ± 11.3 ng/mL
  Neutral fat: 545 ± 53.1 mg/dL
[5]; 30 mg/kg/day in diet
  Blood sugar: 331 ± 39.6 mg/dL
  Free fatty acid: 171 ± 17.4 µEq/l
  Insulin: 67 ± 10.4 ng/mL
  Neutral fat: 298 ± 21.0 mg/dL
